# Measured values reported in patent US20260258021A1, “MONOFLUORINATED COUMARIN FLUOROPHORES AND USES THEREOF” (Ohio State Innovation Foundation, priority 2023, published 2026).
# Values joined by “and” are separate entries in the source; they are usually repeats but may differ in a detail not shown here. Equal entries are not always repeated. Where two headings read alike, the source gives them in different places. Marks after values point to notes of the source that are not given here.
# What was measured:
# physchem = conditions: aqueous buffers of varied pH
# [1] = Absorbance and fluorescence spectroscopy of coumarin amides (λmax, molar extinction coefficient, quantum yield); format: physicochemical; conditions: for ε405 nm (molar extinction coefficient): 405 nm, 10% DMSO; for ε405 nm (molar extinction coefficient) / Φ (quantum yield): PBS; for Φ (quantum yield) / Abs. λmax / Em. λmax: 1% DMSO; for Φ (quantum yield): relative to 30; for Abs. λmax / Em. λmax: aqueous PBS
# Experimental: FIG. […] FIG. 4B depicts the determination of molar extinction coefficients (ε405 nm) of 26-28 as previously described in J. Am. Chem. Soc. […] The integrated fluorescence intensity (Ex. 405 nm, Em. 420-700 nm) was plotted against the maximum absorbance of the sample at the concentration studied (100 nM-6.25 nM) as extrapolated from absorbance measurements at higher concentrations. The slope determined by linear least squares (zero intercept) is proportional to the quantum yield. Spectra were acquired with a BMG LabTech ClarioStar Plus microtiterplate reader.
# [2] = literature; cited from earlier work
# [3] = cited from earlier work; for ε405 nm (molar extinction coefficient): 405 nm, PBS, 10% DMSO, previously described; for Φ (quantum yield): pH 7.4, 1% DMSO, based on a previously reported PB-biotin amide
# purified microtubules = conditions: literature; cited from earlier work
# [4] = test system: microtubules of living HeLa cells; conditions: for Kd: read-out: cellular Kd
# HEK293T cells = test: Cytotoxicity by propidium iodide staining in the FPCBA with DDR1-expressing cells; format: cell-based; conditions: living HEK293T cells, FPCBA competition experiments, [6FC-Dasatinib]=1 μM
# Experimental: FIGS. 6A and 6B depict a fluorescent probe cellular binding assay (FPCBA) with 6FC-Dasatanib and native DDR1 kinase (IRES-mVenus). (FIG. 6A) Binding of 6FC-Dasatanib to native DDR1 expressed in living HEK293T cells by flow cytometry (2 h, 37° C.). (FIG. 6B) Competition experiments against native DDR1 in living HEK293T cells with the kinase inhibitors ponatinib and dasatinib by flow cytometry. [6FC-Dasatinib]=1 μM.
# The previously reported FPCBA approach (Yin, Y. et al. J Am. Chem. Soc. 2024, 146 (1), 187-200) was used to analyze binding of small molecules to native full length DDR1 kinase overexpressed in living HEK293T cells (IRES-mVenus vector) by flow cytometry.
# HeLa cells = conditions: 3 h, 37° C., absence of verapamil
# [5] = living HeLa cells, 3 h, 37° C., absence of verapamil
# [6] = living HeLa cells, 3 h, 37° C., presence of verapamil (100 μM)
compound,measurement,setting,value
"CCCCCCNC(=O)c1cc2cc(F)c(O)cc2oc1=O [Compound 27, 6-Fluoro-N-hexyl-7-hydroxy-2-oxo-2H-chromene-3-carboxamide]",pKa,physchem,6.5
same,ε405 nm (molar extinction coefficient),[1]; pH 7.4,"37,000 M^−1 cm^−1"
same,ε405 nm (molar extinction coefficient),"[1]; pH 7.4, listed as 6FC-hexanamide (27)","37,000 M^−1 cm^−1 and 37,000 (7.4) M^−1 cm^−1"
same,Φ (quantum yield),[1]; pH 7.4,0.84
same,Abs. λmax,[1]; pH 7.4,401 nm
same,Em. λmax,[1]; pH 7.4,451 nm
same,Brightness (product of molar extinction coefficient and quantum yield) relative to PB-hexanamide (30),[1]; pH 7.4,145%
"CCCCCCNC(=O)c1cc2ccc(O)c(F)c2oc1=O [Compound 28, 8-Fluoro-N-hexyl-7-hydroxy-2-oxo-2H-chromene-3-carboxamide]",pKa,physchem,6
same,ε405 nm (molar extinction coefficient),[1]; pH 7.4,"28,000 (7.4) M^−1 cm^−1"
same,Φ (quantum yield),[1]; pH 7.4,0.69
same,Abs. λmax,[1]; pH 7.4,402 nm
same,Em. λmax,[1]; pH 7.4,457 nm
COC(=O)c1cc2cc(F)c(O)c(F)c2oc1=O [PB methyl ester],pKa of the phenol,[2],3.7
"O=C(O)c1cc2ccc(O)cc2oc1=O [Compound 1, 7-hydroxycoumarin-3-carboxylic acid]",pKa of the phenol,[2],7.0-7.5
"CCCCCCNC(=O)c1cc2cc(F)c(O)c(F)c2oc1=O [Compound 30, 6,8-Difluoro-N-hexyl-7-hydroxy-2-oxo-2H-chromene-3-carboxamide, reference compound]",pKa,physchem,4.1
same,Abs. λmax,[1]; pH 7.4,403 nm
same,Em. λmax,[1]; pH 7.4,447 nm
same,ε405 nm (molar extinction coefficient),[3]; pH 7.4,"29,000 (7.4) M^−1 cm^−1"
same,Φ (quantum yield),[3],0.74
same,Φ (quantum yield),[3]; listed as PB-hexanamide (30),0.74^‡
"CCCCCCNC(=O)c1cc2c(F)cc(O)cc2oc1=O [Compound 26, 5-Fluoro-N-hexyl-7-hydroxy-2-oxo-2H-chromene-3-carboxamide]",pKa,physchem,6.9
same,ε405 nm (molar extinction coefficient),[1]; pH 7.4,"25,000 (7.4) M^−1 cm^−1"
same,Φ (quantum yield),[1]; pH 7.4,0.73
same,Abs. λmax,[1]; pH 7.4,400 nm
same,Em. λmax,[1]; pH 7.4,449 nm
"O=C(O)c1cc2cc(F)c(O)c(F)c2oc1=O [Compound 2, Pacific Blue]",pKa of the phenol,[2],4.7
"CCCCCCNC(=O)c1cc2ccc(O)cc2oc1=O [Compound 29, N-Hexyl-7-hydroxy-2-oxo-2H-chromene-3-carboxamide, reference compound]",pKa,physchem,7.3
same,Φ (quantum yield),[1]; pH 7.4,0.35
same,Φ (quantum yield),[1]; pH 10,0.62
same,Abs. λmax,[1]; pH 7.4,401 nm
same,Em. λmax,[1]; pH 7.4,447 nm
same,ε405 nm (molar extinction coefficient),[3]; pH 10,"22,000 (10) M^−1 cm^−1"
CC(=O)O[C@H]1C(=O)[C@@]2(C)[C@H]([C@H](OC(=O)c3ccccc3)[C@]3(O)C[C@H](OC(=O)[C@H](O)[C@@H](NC(=O)c4ccccc4)c4ccccc4)C(C)=C1C3(C)C)[C@]1(OC(C)=O)CO[C@@H]1C[C@@H]2O [paclitaxel],Ki,purified microtubules,19 nM and 27 nM and 31 nM
"CC(=O)O[C@H]1C(=O)[C@]2(C)[C@@H](OC(=O)CCCNC(=O)c3cc4ccc(O)c(F)c4oc3=O)C[C@H]3OC[C@@]3(OC(C)=O)[C@H]2[C@H](OC(=O)c2ccccc2)[C@]2(O)C[C@H](OC(=O)[C@H](O)[C@@H](NC(=O)c3ccccc3)c3ccccc3)C(C)=C1C2(C)C [Compound 10, (2aR,4S,4aS,6R,9S,11S,12S,12bS)-9-(((2R,3S)-3-Benzamido-2-hydroxy-3-phenylpropanoyl)oxy)-12-(benzoyloxy)-4-((4-(8-fluoro-7-hydroxy-2-oxo-2H-chromene-3-carboxamido)butanoyl)oxy)-11-hydroxy-4a,8,13,13-tetramethyl-5-oxo-3,4,4a,5,6,9,10,11,12,12a-decahydro-1H-7,11-methanocyclodeca[3,4]benzo[1,2-b]oxete-6,12b(2aH)-diyl diacetate]",Kd,[4]; [5],3500 nM
same,Kd,[4]; [6],230 nM
"Cc1nc(Nc2ncc(C(=O)Nc3c(C)cccc3Cl)s2)cc(N2CCN(CCOCCNC(=O)c3cc4cc(F)c(O)cc4oc3=O)CC2)n1 [6FC-Dasatinib, N-(2-chloro-6-methylphenyl)-2-((6-(4-(2-(2-(6-fluoro-7-hydroxy-2-oxo-2H-chromene-3-carboxamido)ethoxy)ethyl)piperazin-1-yl)-2-methylpyrimidin-4-yl)amino)thiazole-5-carboxamide]",Cytotoxicity (propidium iodide staining),HEK293T cells,No cytotoxicity was observed
"CC(=O)O[C@H]1C(=O)[C@]2(C)[C@@H](OC(=O)CCCNC(=O)c3cc4cc(F)c(O)cc4oc3=O)C[C@H]3OC[C@@]3(OC(C)=O)[C@H]2[C@H](OC(=O)c2ccccc2)[C@]2(O)C[C@H](OC(=O)[C@H](O)[C@@H](NC(=O)c3ccccc3)c3ccccc3)C(C)=C1C2(C)C [Compound 9, (2aR,4S,4aS,6R,9S,11S,12S,12bS)-9-(((2R,3S)-3-benzamido-2-hydroxy-3-phenylpropanoyl)oxy)-12-(benzoyloxy)-4-((4-(6-fluoro-7-hydroxy-2-oxo-2H-chromene-3-carboxamido)butanoyl)oxy)-11-hydroxy-4a,8,13,13-tetramethyl-5-oxo-3,4,4a,5,6,9,10,11,12,12a-decahydro-1H-7,11-methanocyclodeca[3,4]benzo[1,2-b]oxete-6,12b(2aH)-diyl diacetate]",Kd,[4]; [5],2400 nM
same,Kd,[4]; [6],150 nM
"(2aR,4S,4aS,6R,9S,11S,12S,12bS)-9-(((2R,3S)-3-benzamido-2-hydroxy-3-phenylpropanoyl)oxy)-12-(benzoyloxy)-11-hydroxy-4-((4-(7-hydroxy-2-oxo-2H-chromene-3-carboxamido)butanoyl)oxy)-4a,8,13,13-tetramethyl-5-oxo-3,4,4a,5,6,9,10,11,12,12a-decahydro-1H-7,11-methanocyclodeca[3,4]benzo[1,2-b]oxete-6,12b(2aH)-diyldiacetate [Compound 6]",Cellular uptake,HeLa cells,high cellular uptake
"CC(=O)O[C@H]1C(=O)[C@]2(C)[C@@H](OC(=O)CCCNC(=O)c3cc4c(F)cc(O)cc4oc3=O)C[C@H]3OC[C@@]3(OC(C)=O)[C@H]2[C@H](OC(=O)c2ccccc2)[C@]2(O)C[C@H](OC(=O)[C@H](O)[C@@H](NC(=O)c3ccccc3)c3ccccc3)C(C)=C1C2(C)C [Compound 8, (2aR,4S,4aS,6R,9S,11S,12S,12bS)-9-(((2R,3S)-3-benzamido-2-hydroxy-3-phenylpropanoyl)oxy)-12-(benzoyloxy)-4-((4-(5-fluoro-7-hydroxy-2-oxo-2H-chromene-3-carboxamido)butanoyl)oxy)-11-hydroxy-4a,8,13,13-tetramethyl-5-oxo-3,4,4a,5,6,9,10,11,12,12a-decahydro-1H-7,11-methanocyclodeca[3,4]benzo[1,2-b]oxete-6,12b(2aH)-diyl diacetate]","S/B (maximal signal-to-background, fold change)","[4]; 0.4 μM probe, absence of verapamil",7 fold
same,cellular Kd,[4]; [5],low affinity prevented accurate determination
same,Kd,[4]; [6],150 nM
